Assay results: US20080090836A1, “Pyrazole Compounds Useful In The Treatment Of Inflammation” (priority 2004, published 2008)

Each compound was assayed against T1, purified human 15-lipoxygenase (Homo sapiens, UniProt P16050) (assay: 15-lipoxygenase inhibition assay (oxidation of arachidonic acid, product measured by reverse phase HPLC)). Conditions: arachidonic acid substrate, room temperature, PBS pH 7.4.
T1 sequence (P16050 1-662): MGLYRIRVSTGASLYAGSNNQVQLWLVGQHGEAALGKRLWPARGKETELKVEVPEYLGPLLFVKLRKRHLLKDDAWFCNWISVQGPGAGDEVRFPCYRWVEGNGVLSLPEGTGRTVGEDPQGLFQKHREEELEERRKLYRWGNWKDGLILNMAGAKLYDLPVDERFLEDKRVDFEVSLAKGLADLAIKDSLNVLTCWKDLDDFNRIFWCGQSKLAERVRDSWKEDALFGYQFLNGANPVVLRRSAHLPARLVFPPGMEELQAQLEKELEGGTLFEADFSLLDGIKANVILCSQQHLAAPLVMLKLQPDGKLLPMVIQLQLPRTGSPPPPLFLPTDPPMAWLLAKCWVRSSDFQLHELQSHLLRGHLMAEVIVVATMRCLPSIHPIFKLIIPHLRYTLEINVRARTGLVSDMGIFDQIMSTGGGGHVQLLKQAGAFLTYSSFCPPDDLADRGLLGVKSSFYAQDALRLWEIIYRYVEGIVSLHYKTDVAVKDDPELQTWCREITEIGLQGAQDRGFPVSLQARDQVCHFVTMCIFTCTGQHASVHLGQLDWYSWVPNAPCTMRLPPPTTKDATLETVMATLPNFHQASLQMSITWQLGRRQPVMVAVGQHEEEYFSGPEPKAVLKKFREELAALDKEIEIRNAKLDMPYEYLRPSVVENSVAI
Format: biochemical
Experimental: The assay employed takes advantage of the ability of lipoxygenases to oxidize polyunsaturated fatty acids, containing a 1,4-cis-pentadiene configuration, to their corresponding hydroperoxy or hydroxyl derivatives. In this particular assay, the lipoxygenase was a purified human 15-lipoxygenase and the fatty acid was arachidonic acid. The assay is performed at room temperature (20-22° C.) and the following are added to each well in a 96-well microliter plate:
a) 35 μL phosphate buffered saline (PBS) (pH 7.4);
b) inhibitor (i.e. compound) or vehicle (0.5 μl DMSO);
c) 10 μL of a 10× concentrated solution of 15-lipoxygenase in PBS. The plates are incubated for 5 minutes at room temperature;
The plate is then incubated for 10 minutes at room temperature;
e) the enzymatic reaction is terminated by the addition of 100 μl methanol; and
f) the amount of 15-hydroperoxy-eicosatetraenoic acid or 15-hydroxyeicosatetraenoic acid is measured by reverse phase HPLC.

**Q.** With Cc1cn(C(=O)NCCc2cccs2)nc1C(=O)Nc1ccc(F)cc1Cl [Example 4, 4-Methylpyrazole-1,3-dicarboxylic acid 3-[(2-chloro-4-fluorophenyl)-amide] 1-[(2-thien-2-ylethyl)amide]] as the compound, how does the IC50 read?
**A.** Its IC50 is 3.71 µM.

**Q.** Which IC50 does the source give for CCOC(=O)CNC(=O)n1cc(C)c(C(=O)Nc2ccc(F)cc2Cl)n1 [Example 17, {[3-(2-Chloro-4-fluorophenylcarbamoyl)-4-methylpyrazole-1-carbonyl]-amino}acetic acid ethyl ester] here?
**A.** Its IC50 is 8.51 µM.

**Q.** With Cc1cc(C(=O)Nc2ccc(F)cc2Cl)nn1C(=O)NCCc1cccs1 [Example 30, 5-Methylpyrazole-1,3-dicarboxylic acid 3-[(2-chloro-4-fluorophenyl)-amide] 1-[(2-thien-2-ylethyl)-amide]] as the compound, how does the IC50 read?
**A.** Its IC50 is 0.71 µM.

**Q.** Which IC50 does the source give for CCOC(=O)CNC(=O)n1nc(C(=O)Nc2ccc(F)cc2Cl)cc1C [Example 31, {[3-(2-Chloro-4-fluorophenylcarbamoyl)-5-Methylpyrazole-1-carbonyl]-amino}-acetic acid ethyl ester] here?
**A.** Its IC50 is 0.63 µM.

**Q.** Which IC50 does the source give for Cc1cc(C(=O)Nc2ccc(F)cc2Cl)nn1C(=O)NC1CCN(C(=O)OCc2ccccc2)CC1 [Example 32, 4-{[3-(2-Chloro-4-fluorophenylcarbamoyl)-5-methylpyrazole-1-carbonyl]amino}-piperidine-1-carboxylic acid benzyl ester] here?
**A.** Its IC50 is 0.66 µM.

**Q.** How did the IC50 turn out when C=CCNC(=O)n1nc(C(=O)Nc2ccc(F)cc2Cl)cc1C [Example 33, 5-Methylpyrazole-1,3-dicarboxylic acid 1-allylamide 3-[(2-chloro-4-fluorophenyl)amide]] was run?
**A.** Its IC50 is 5.6 µM.

**Q.** How did the IC50 turn out when CCCCOc1ccc(S(=O)(=O)n2nc(C(=O)Nc3ccc(F)cc3Cl)cc2C)cc1 [Example 50, 1-(4-Butoxy-benzenesulfonyl)-5-methylpyrazole-3-carboxylic acid (2-chloro-4-fluorophenyl)amide] was run?
**A.** The IC50 was 8.33 µM.

**Q.** For COc1ccc(S(=O)(=O)n2nc(C(=O)Nc3ccc(F)cc3Cl)cc2C)cc1 [Example 51, 1-(4-Methoxy-benzenesulfonyl)-5-methylpyrazole-3-carboxylic acid (2-chloro-4-fluorophenyl)amide], which IC50 is on record?
**A.** Its IC50 is 5.87 µM.
